Experimental data: patent US7300946B2, “N-(substituted arylmethyl)-4-(disubstituted methyl) piperidines and pyridines” (Bayer CropScience AG, priority 2002, dated 2007)

Tested on: tobacco budworm (Heliothis virescens [Fabricius])
Experiment: surface-treated diet test against the tobacco budworm
Assay type: in vivo
Details: tobacco budworm second instar larvae, 0.25 millimoles of candidate insecticide on the surface of the diet, five-day exposure; for Percent Mortality: compared to total number of insects infested; for Percent Growth Inhibition: inhibition of insect weight relative to untreated controls
Procedure, shortened: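 Wheat germ artificial diet surface-treated with 40 µL of 50 mM DMSO stock diluted 1:7 in 1:1 water/acetone (0.25 millimolar on diet), or sub-multiples for rate tests. One second-instar larva per well, 25° C, 60% RH, 5 days; percent weight inhibition vs DMSO controls and percent mortality.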

Row | Structure (SMILES) | Percent Mortality | Percent Growth Inhibition
1 | CC=CCOC(=O)Nc1ccc(C[N+]2([O-])CCC(=C(c3ccc(C(F)(F)F)cc3)c3ccc(C(F)(F)F)cc3)CC2)cc1 (stereo not shown) [Compound 837] | 100% | 100%
2 | C#CCOC(=O)Nc1ccc(C[N+]2([O-])CCC(=C(c3ccc(C(F)(F)F)cc3)c3ccc(C(F)(F)F)cc3)CC2)cc1 (stereo not shown) [Compound 838] | 100% | 100%
3 | [O-][N+]1(Cc2ccc(Oc3ccccc3F)cc2)CCC(=C(c2ccc(C(F)(F)F)cc2)c2ccc(C(F)(F)F)cc2)CC1 (stereo not shown) [Compound 839] | 100% | 100%
4 | [O-][N+]1(Cc2ccc(-c3ccccn3)cc2)CCC(=C(c2ccc(C(F)(F)F)cc2)c2ccc(C(F)(F)F)cc2)CC1 (stereo not shown) [Compound 840] | 100% | 100%
5 | [O-][N+]1(Cc2ccc(Oc3ccccn3)cc2)CCC(=C(c2ccc(Cl)cc2)c2ccc(Cl)cc2)CC1 (stereo not shown) [Compound 841] | 100% | 100%
6 | [O-][N+]1(Cc2ccc(Oc3ccccn3)cc2)CCC(=C(c2ccc(F)cc2)c2ccc(F)cc2)CC1 (stereo not shown) [Compound 842] | 100% | 100%
7 | [O-][N+]1(Cc2ccc(Nc3ccccn3)cc2)CCC(=C(c2ccc(C(F)(F)F)cc2)c2ccc(C(F)(F)F)cc2)CC1 (stereo not shown) [Compound 843] | 100% | 100%
8 | [O-][N+]1(Cc2ccc(Oc3ncccn3)cc2)CCC(=C(c2ccc(Cl)cc2)c2ccc(Cl)cc2)CC1 (stereo not shown) [Compound 844] | 100% | 100%
9 | [O-][N+]1(Cc2ccc(Oc3ncccn3)cc2)CCC(=C(c2ccc(C(F)(F)F)cc2)c2ccccc2Cl)CC1 (stereo not shown) [Compound 845] | 83% | 100%
10 | [O-][N+]1(Cc2ccc(Oc3ncccn3)cc2)CCC(=C(c2ccc(C(F)(F)F)cc2)c2cccc(Cl)c2)CC1 (stereo not shown) [Compound 846] | 100% | 100%
11 | [O-][N+]1(Cc2ccc(Oc3ncccn3)cc2)CCC(=C(c2ccc(Cl)cc2)c2ccc(C(F)(F)F)cc2)CC1 (stereo not shown) [Compound 847] | 100% | 100%
12 | [O-][N+]1(Cc2ccc(Oc3ncccn3)cc2)CCC(=C(c2ccc(C(F)(F)F)cc2)c2cccc(F)c2)CC1 (stereo not shown) [Compound 848] | 83% | 100%
13 | [O-][N+]1(Cc2ccc(Oc3ncccn3)cc2)CCC(=C(c2ccc(Cl)c(Cl)c2)c2ccc(Cl)c(Cl)c2)CC1 (stereo not shown) [Compound 849] | 100% | 100%
14 | [O-][N+]1(Cc2ccc(Oc3ncccn3)cc2)CCC(=C(c2ccc(C(F)(F)F)cc2)c2ccc(Cl)c(Cl)c2)CC1 (stereo not shown) [Compound 850] | 100% | 100%
15 | [O-][N+]1(Cc2ccc(Oc3ncccn3)cc2)CCC(=C(c2ccc(C(F)(F)F)cc2)c2cc(Cl)cc(Cl)c2)CC1 (stereo not shown) [Compound 851] | 50% | 100%
16 | [O-][N+]1(Cc2ccc(Oc3ncccn3)cc2)CCC(=C(c2ccc(C(F)(F)F)cc2)c2ccc(Cl)c(F)c2)CC1 (stereo not shown) [Compound 852] | 100% | 100%
17 | [O-][N+]1(Cc2ccc(Oc3ncccn3)cc2)CCC(=C(c2ccc(C(F)(F)F)cc2)c2cccc(C(F)(F)F)c2)CC1 (stereo not shown) [Compound 853] | 100% | 100%
